Assay results as given in US20030215959A1, “Method of screening binding of a compound to a receptor” (priority 2002, published 2003).

Experiments:
[1] = system: non-NMDA glutamate receptors in mouse cortical cells; assay: CNQX displacement assay with homogenized mouse cortical cells, visible difference absorption spectra; type: binding; settings: homogenized mouse cortical cells with CNQX in PBS pH 7.4; test compound 100 μM; 310 nm to 450 nm; FIG. 2 traces A-B
Method: Cortical neuronal cultures: Mixed cortical cell cultures containing both neurons and astrocytes were prepared from fetal mice (15-16 day gestation) as described by Asrari and Lobner (14). Briefly, dissociated cortical cells were plated on a preexisting astrocyte monolayer in a 24-well plate (a plating density of ˜2.5×10^5 cells per well). The plating medium was Eagle's minimal essential medium (MEM) (Earle's salts, supplied glutamine-free) supplemented with 5% fetal bovine serum, 5% horse serum, 2 mM glutamine and 20 mM glucose. Non-neuronal cell division was halted at 3-5 days in vitro by 3-day exposure to […] cytosine arabinoside. Cultures were maintained in humidified 5% CO2 incubators at 37° C. and were used for experiments at 14-16 days in vitro.
Absorption measurements: The UV-visible absorption spectra were obtained using Agilent 8453 or Shimadzu UV 2501 spectrometers. The spectra were recorded in the 310 nm to 450 nm range, at a spectral resolution of 2 nm, using a 1 cm quartz cuvette as the sample holder. […]
Dissociated mouse cortical cells were obtained as outlined in the Materials and Methods section. […] CNQX was added to the cells such that the final absorption of the sample in the 310 nm to 450 nm range was less than 1 absorbance unit. […]

[2] = molecular target: T1, GluR2-S1S2 (ligand-binding domain of the GluR2 subunit of the glutamate receptor) (Rattus norvegicus, UniProt P19491); assay: Quinoxaline (CNQX) displacement assay with GluR2-S1S2, visible difference absorption spectra; settings: GluR2-S1S2 bound to 25 μM CNQX; test ligand 50 μM; phosphate buffer pH 7.4; 310 nm to 450 nm; FIG. 1 traces B-E
T1 construct: made in house
T1 sequence (P19491 411-527): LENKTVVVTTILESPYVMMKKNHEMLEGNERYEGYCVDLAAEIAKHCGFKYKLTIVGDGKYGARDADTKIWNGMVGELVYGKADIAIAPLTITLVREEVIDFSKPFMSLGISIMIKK
T1 sequence (P19491 653-796): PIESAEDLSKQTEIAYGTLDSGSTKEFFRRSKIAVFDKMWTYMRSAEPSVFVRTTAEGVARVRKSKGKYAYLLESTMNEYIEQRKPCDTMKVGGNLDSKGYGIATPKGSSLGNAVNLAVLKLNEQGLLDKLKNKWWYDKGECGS
Description: To begin, a baseline or control spectrum of the free quinoxaline derivative in buffer solution is generated. A second spectrum is then taken of the quinoxaline admixed with the receptor under investigation. A difference spectrum is then generated between the first spectrum (free quinoxaline) and second spectrum (protein-bound quinoxaline). The characteristic features of this difference spectrum arise due to changes in the electronic spectrum of the quinoxaline derivative bound to the protein as compared to the electronic spectrum of the free quinoxaline. Thus, the difference spectrum can be used as the control to test for compounds that compete for the same binding site as quinoxaline derivative.
With the difference spectrum in hand as a control, a known amount of a test agent is added to a test well containing the receptor protein and the quinoxaline derivative. […] A visible spectrum is than taken of the test well. This test spectrum is then compared to the control spectrum to see if they share the same characteristic changes in the electronic character of the quinoxaline. […]

displacement of bound CNQX from the receptor protein (difference spectrum) [2]	Structure (SMILES)	displacement of CNQX from the non-NMDA glutamate receptors in cortical cells (difference spectrum) [1]
–	N[C@@H](CCC(=O)O)C(=O)O [glutamate]	is displaced by the addition of glutamate
does not displace CNQX from the protein	NCCCC(=O)O [γ-amino butyric acid]	CNQX is not displaced
